# Measured values published in article PMC7577153, “Identification of Small-Molecule Inhibitors Targeting Porphyromonas gingivalis Interspecies Adherence and Determination of Their In Vitro and In Vivo Efficacies” (Antimicrobial Agents and Chemotherapy, 2020).
# Marks after values point to notes of the source that are not given here.
# Key:
# TIGK cells = settings: positive control, 2 mM hydrogen peroxide, 4 h;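 note: flow cytometry of cells stained with PE annexin V plus Sytox green, with untreated or 0.1% DMSO-exposed cells as negative controls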
# Protocol: (§1) The mouse macrophage cell line J774A.1 was grown in Dulbecco’s modified Eagle medium (DMEM) (Thermo Fisher Scientific, Waltham, MA) supplemented with 4.5 g/ml glucose, 10% fetal bovine serum (FBS), and 100 U/ml penicillin-streptomycin (Sigma-Aldrich, St. Louis, MO). HL60 (ATCC CCL240) cells were obtained from the American Type Culture Collection and cultured in Iscove’s modified Dulbecco’s medium (Sigma-Aldrich) supplemented with 20% fetal bovine serum (FBS) (Sigma-Aldrich).
# (§2) The apoptotic activity of the compounds was determined using the phycoerythrin (PE) annexin V/dead cell apoptosis kit with Sytox green for flow cytometry (Invitrogen, Carlsbad, CA). Cells were grown in 12-well flat-bottom microtiter plates at an initial density 2 × 10^5 cells in 1.5-ml medium per well for 24 h. Following the incubation period, spent medium was replaced with fresh medium containing the desired concentration of the test compound and incubated for another 18 h. After trypsinization, cells were harvested by centrifuging at 250 × g for 4 min, and the cell pellet was suspended in 100 μl of binding buffer supplemented with 1 μl Sytox and 5 μl annexin V, followed by incubation at 37°C for 15 min. Samples were then diluted by adding 400-μl binding buffer, and flow cytometry was performed using a FACScalibur flow cytometer (Becton, Dickinson, Franklin Lakes, NJ), measuring the fluorescence emissions at 530 nm and 575 nm.
# J774A.1 cells = settings: positive control, 2 mM hydrogen peroxide, 4 h
# Protocol: as §1, §2
# HL60 cells = settings: HL60, positive control, 2 mM hydrogen peroxide, 4 h
# Protocol: as §1, §2
smiles,measurement,setting,value
"OO [Medium/H2O2, hydrogen peroxide, reference compound]",Early apoptosis (%),TIGK cells,4.9%
same,Late apoptosis/necrosis (%),TIGK cells,21.9* %
same,Live cells (%),TIGK cells,56.6%
same,Early apoptosis (%),J774A.1 cells,1.3%
same,Late apoptosis/necrosis (%),J774A.1 cells,34.7%
same,Live cells (%),J774A.1 cells,41.9%
same,Early apoptosis (%),HL60 cells,12.3%
same,Late apoptosis/necrosis (%),HL60 cells,31.4%
same,Live cells (%),HL60 cells,52.7%
